Data: patent publication US9403747B2, “Methods and compositions for treating leukemia” (Golden Biotechnology Corporation, priority 2013, dated 2016)
Each block holds one molecule with its values, some of them ahead of it.

Experiments:
[1] = system: THP-1 xenograft; assay: THP-1 leukemia xenograft model; assay type: in vivo, CB.17 SCID mice; conditions: 120 mg/kg PO twice per day, 5 days per week, 4 weeks
Method: Six to seven weeks old male CB.17 SCID mice were purchased from BioLasco Taiwan Co., LTD. and quarantined for one week. During experiment period, 5 mice will be housed in one cage. All animals will be hosted in the Da-Hu animal facility in a 12-h light/12-h dark cycle at 19-25° C. Animals have free access to rodent pellet food and water ad libitum. The experimental protocol of animal study was reviewed and approved by the Institutional Animal Care and Use Committee, DCB. Compound 1 was diluted in olive oil to final concentrations of 12 mg/mL.
Tumor cell line: THP-1 cells (leukemia) were cultured in RPMI-1640 medium or DMEM medium which supplemented with 10% heat inactivated fetal bovine serum. The cells were cultured in tissue culture flasks in a humidified incubator at 37° C., in an atmosphere of 5% CO2 and 95% air.
The human cancer cells used for implantation were harvested during log phase growth and resuspended in phosphate buffered saline to a concentration containing 2×10^7 cells/mL of THP-1, in 0.1 mL of a 50% Matrigel solution (BD Biosciences, MA, USA). […] Volume was calculated using the formula: Tumor Volume=(w^2×l)/2 where w=width and l=length in diameter (mm) of the tumor. […]
Tumors were measured twice per week using calipers. […] The body weight change was calculated as the percentage increase in body weight compared to the initial body weight. […]

[2] = system: H838; assay: CCK-8 cell viability assay, H838; assay type: cell-based; conditions: Homo sapiens, NCI-H838, 48 h, 48 h treatment; means ± S.E.M.
Method: Human hepatoma (HepG2, Hep3B), human lung adenocarcinoma (A549, H838), and human myelogenous leukemia (K562) cell lines were obtained from American Type Culture Collection (Rockville, Md., USA). Human prostate cancer cell lines (LNCaP and DU145), human breast carcinoma (MCF-7), human bladder carcinoma (TSGH 8301) and human pancreas adenocarcinoma (BxPC-3) were obtained from BCRC (Bioresource Collection and Research Center, Hsinchu, Taiwan). HepG2, DU145 and MCF-7 cell lines were cultured in Minimum Essential Medium Alpha (Invitrogen/Gibco BRL, Grand Island, N.Y., USA). A549 cells were cultured in Dulbecco's modified Eagle's medium (Invitrogen/Gibco BRL). […]
Cell viability was measured using Cell Counting Kit-8 (CCK-8, Enzo Life Sciences, Farmingdale, N.Y.). […] The concentration of formazan was measured with a spectrophotometer at an absorbance wavelength of 450 nm. Cell viability was expressed as a percentage of the corresponding control.
To determine whether the cytotoxic effects of Compound 1 correlate with the presence of Ras mutations, cell lines derived from human lung cancer (A549 and H838), liver cancer (HepG2 and Hep3B), and leukemia (K562 and THP-1) with wild-type Ras (H838, Hep3B, and K562) or mutant Ras (A549, HepG2, and THP-1) were used. Cell viability was measured after 48 h of Compound 1 treatment.

[3] = system: Ras; assay: Immunoblot of unprocessed and processed Ras in cancer cell lines; assay type: cell-based, human; conditions: H838 cells, 24 h
Method: FIG. 2A-C show illustrative effective results of the exemplary Compound 1 inhibiting Ras processing in cancer cell lines. (2A) A549 and H838 cells were treated with different concentrations of Compound 1 and grown under serum (10% FBS) or serum-free (no FBS) conditions for 24 h. (2B) H838, (2C) HepG2 and K562 cells were treated with different concentrations of Compound 1 and grown under serum-free (no FBS) conditions for 24 h. Whole cell lysates were then immunoblotted with a Ras antibody. A duplicate membrane was probed with a GAPDH antibody. The relative expression level of unprocessed to processed Ras was quantified by densitometry. The experiments were conducted three times. […]
FIG. 3A-C show illustrative effective results of Compound 1 inhibiting the prenylation activity of farnesyltransferase in vitro and competes with FPP within cells. […] The relative expression level of unprocessed to processed Ras was quantified by densitometry. […]
Sixty micrograms of total protein lysates measured using a Bradford assay (Sigma-Aldrich, St. Louis, Mo., USA) were resolved on 12.5% SDS-polyacrylamide gels. […] Secondary antibodies were conjugated to horseradish peroxidase, which was detected using a 3,3′-diaminobenzidine substrate kit (Vector Laboratories, Burlingame, Calif.). The immunoreactive bands were quantified by densitometry using Image-Pro Plus software (Media Cybernetics, Silver Spring, Md.). […]

Structure (SMILES): COC1=C(OC)C(O)C(C/C=C(\C)CC/C=C(\C)CCC=C(C)C)C(C)C1=O (stereo not shown) [Compound 1, 4-hydroxy-2,3-dimethoxy-6-methyl-5-(3,7,11-trimethyldodeca-2,6,10-trienyl)cyclohex-2-enone]
body weight [1]: almost no body weight changes

IC50 [2]: 22.6 ± 6.45 µM
Structure (SMILES): COC1=C(OC)C(=O)C(C/C=C(\C)CC/C=C(\C)CCC=C(C)C)=C(C)C1=O [Compound 25, 2,3-dimethoxy-5-methyl-6-((2E,6E)-3,7,11-trimethyldodeca-2,6,10-trienyl)cyclohexa-2,5-diene-1,4-dione]

Structure (SMILES): CC(C)=CCC/C(C)=C/CC/C(C)=C/COP(=O)(O)OP(=O)(O)O [FPP]
Ras processing, agent alone [3]: potentiated Ras processing
FPP concentration neutralizing the effect of Compound 1 on Ras processing ([3]; competition assay): ≥ 10 µM
